“Also recorded” adds a separate entry of the source.
Assays:
[1] = test system: Abeta 42 oligomer-induced synapse loss in primary neurons; experiment: Abeta oligomer-induced synapse loss assay; type: cell-based
Experimental: The number of synapses can also be quantified in this assay by immunofluorochemistry.
Primary hippocampal neuronal culture is established as in the membrane trafficking assay above. […] Pretreatment with test compounds for 1 hr and addition of Abeta oligomers or no oligomer (vehicle alone) is followed by incubation for an additional 23 hrs.
The plates are then washed 3× with PBS for 5 min each. The plates are blocked at RT for 1 hr in 5% goat serum and 0.5% Triton X-100 in PBS. Primary antibodies (anti-MAP 2 polyclonal, Millipore #AB5622 and anti-Beta Amyloid 6E10 monoclonal, Covance #SIG-39300, at 1 microgram/ml, and rabbit polyclonal anti-synaptophysin, Anaspec, at 0.2 microgram/ml) were diluted 1:1000 in 5% goat serum with PBS. Primary antibodies are incubated overnight at 4° C. The plates are then washed 3× with PBS for 5 min each. Secondary antibodies (Alex Flor 488 polyclonal, Invitrogen #A11008 and Alexa Flor 647 monoclonal, Invitrogen #A21235) are diluted 1:1000 in 5% goat serum with PBS. Secondary antibodies are incubated at RT for 1 hr. The plates are washed once with PBS. DAPI (4′,6-diamidino-2-phenylindole, Invitrogen) is then applied at 0.03 ug/ul and incubated at RT for 5 min, then washed with PBS.

[2] = test system: caspase-3; conditions: cited from earlier work; for caspase-3 activation: tumor cells and neurons, WO2013/029060 FIGS. 10A and 10B
[3] = test system: neuronal cultures; experiment: Nuclear intensity/morphology in neuronal cultures treated with sigma compounds; type: cell-based; conditions: 24 hours treatment, compared to vehicle
Experimental: Neuronal cultures are treated with various concentrations of sigma compounds for 24 hours and nuclear intensity compared to vehicle is measured. […] Isoindoline test compounds of the present disclosure are analyzed in this assay to help determine neuronal phenotype, results are shown in Table 2.

[4] = test system: MDA-MB-435 or MDA-MB231 or SKOV-3 cells; experiment: MTS tumor cell viability assay (agonist/antagonist activity of sigma-2 ligands); type: cell-based
Experimental: The cytotoxicity of test compounds is determined using the CellTiter96 Aqueous One Solution Assay (Promega, Madison, Wis.). Briefly, MDA-MB-435 or MDA-MB231 or SKOV-3 cells were seeded in a 96-well plate at a density of 2000 cells/well on the day prior to treatment with sigma-2 receptor selective ligands. After a 24 hour treatment, the CellTiter 96 AQueous One Solution Reagent is added to each well, and the plate incubated for 2 hours at 37° C. The plate is read at 490 nm in a Victor3 plate reader (PerkinElmer Life and Analytical Sciences, Shelton, Conn.). The EC^50 value, defined as the concentration of the sigma ligand required to inhibit cell viability by 50% relative to untreated cells, is determined from the dose response curve for each cell line. Siramesine is accepted as an agonist.

| Structure (SMILES) | elimination of Abeta 42 oligomer-induced synapse loss [1] | block of caspase-3 activation by agonist SV-119 in neurons ([2]; neurons, WO2013/029060 FIG. 10B) | caspase-3 activation [2] | inhibition of caspase-3 activation in tumor cells ([2]; tumor cells, WO2013/029060 FIG. 10A) | nuclear morphology / nuclear intensity in neurons [3] | Action [4] | recovery of synapse loss [1] |
| --- | --- | --- | --- | --- | --- | --- | --- |
| CCCN(CCC)CCc1ccc(OC)c(OCCc2ccccc2)c1 [NE-100] | completely eliminated synapse loss | – | – | – | – | – | – |
| COc1cc2c(cc1OC)CN(CCCCNC(=O)c1cc(C)ccc1OC)CC2 [RHM-1, N-[4-(3,4-dihydro-6,7-dimethoxyisoquinolin-2(1H)-yl)butyl]-2-methoxy-5-methylbenzamide] | – | not able to block activation | do not induce caspase-3 activity | inhibits the activation in tumor cells | do not decrease nuclear intensity | Antagonist | – |
| CCC(Oc1ccc(Cl)cc1)C(=O)OC1CC2CCC(C1)N2C (stereo not drawn) [SM-21] | only weakly active in eliminating synapse loss | – | – | – | – | – | 20% |
| COc1ccc(C)cc1NC(=O)OC1C[C@H]2CCC[C@@H](C1)N2CCCCCCN (stereo partly drawn) [SV-119] | – | – | activate caspase-3 in tumor cells and neurons | – | cause significant abnormal nuclear morphology in neurons | Full agonist | – |
| Fc1ccc(-n2cc(CCCCN3CCC4(CC3)OCc3ccccc34)c3ccccc32)cc1 [Siramesine] | – | – | activate caspase-3 in tumor cells and neurons; also recorded: induces caspase-3 activity | – | cause significant abnormal nuclear morphology in neurons | Full agonist | – |
| O=C(CCCN1CCC(O)(c2ccc(Cl)cc2)CC1)c1ccc(F)cc1 [haloperidol] | completely eliminated synapse loss | – | – | – | – | – | – |
